Data: ChEMBL document CHEMBL1201862, “PubChem BioAssay data set” (2004)
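Results reflect a 48-hour exposure of cells in 96-well plates to compound at five concentrations. At the GI50, growth is halved.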 Active and inactive are the calls of the source. No stated cut-off is given here; in the data, active = GI50 up to about 1.1 µM and inactive = higher.

Columns and labels:
Assay in all cases: NCI anticancer screen, dose series, 48 h
KM12 = system: KM12
NCI-H23 = system: NCI-H23
786-0 = system: 786-0
SF-268 = system: SF-268
OVCAR-8 = system: OVCAR-8
SK-MEL-2 = system: SK-MEL-2
DU-145 = system: DU-145
SK-MEL-5 = system: SK-MEL-5
NCI-H226 = system: NCI-H226
HCT-116 = system: HCT-116
CCRF-CEM = system: CCRF-CEM
U-251 = system: U-251
ACHN = system: ACHN
MOLT-4 = system: MOLT-4
OVCAR-3 = system: OVCAR-3
UO-31 = system: UO-31
IGROV-1 = system: IGROV-1
MCF7 = system: MCF7
MDA-MB-231 = system: MDA-MB-231
BT-549 = system: BT-549
PC-3 = system: PC-3
SK-OV-3 = system: SK-OV-3
SN12C = system: SN12C
T47D = system: T47D
MDA-MB-435 = system: MDA-MB-435
RPMI-8226 = system: RPMI-8226
COLO 205 = system: COLO 205
HCC 2998 = system: HCC 2998
HOP-92 = system: HOP-92
OVCAR-5 = system: OVCAR-5
HCT-15 = system: HCT-15
NCI-H460 = system: NCI-H460
RXF 393 = system: RXF 393
UACC-257 = system: UACC-257
M14 = system: M14
EKVX = system: EKVX
MDA-N = system: MDA-N
NCI-H522 = system: NCI-H522
SF-539 = system: SF-539
Hs-578T = system: Hs-578T
A498 = system: A498
SNB-75 = system: SNB-75
SW-620 = system: SW-620
CAKI-1 = system: CAKI-1
SR = system: SR
K562 = system: K562
SF-295 = system: SF-295
HOP-62 = system: HOP-62
OVCAR-4 = system: OVCAR-4
NCI/ADR-RES = system: NCI/ADR-RES
SNB-19 = system: SNB-19
LOX IMVI = system: LOX IMVI
UACC-62 = system: UACC-62
TK-10 = system: TK-10
Malme-3M = system: Malme-3M
A549 = system: A549
HT-29 = system: HT-29
SK-MEL-28 = system: SK-MEL-28
HL-60 = system: HL-60

Oc1nc2c(c(-c3ccc(F)cc3)n1)COC/C2=C\c1ccc(F)cc1
GI50 (KM12): > 100 µM (inactive)
GI50 (NCI-H23): > 100 µM (inactive)
GI50 (786-0): > 100 µM (inactive)
GI50 (SF-268): > 100 µM (inactive)
GI50 (OVCAR-8): > 100 µM (inactive)
GI50 (SK-MEL-2): > 100 µM (inactive)
GI50 (DU-145): > 100 µM (inactive)
GI50 (SK-MEL-5): > 100 µM (inactive)
GI50 (NCI-H226): > 100 µM (inactive)
GI50 (HCT-116): > 100 µM (inactive)
GI50 (CCRF-CEM): > 100 µM (inactive)
GI50 (U-251): > 100 µM (inactive)
GI50 (ACHN): > 100 µM (inactive)
GI50 (MOLT-4): > 100 µM (inactive)
GI50 (OVCAR-3): > 100 µM (inactive)
GI50 (UO-31): > 100 µM (inactive)
GI50 (IGROV-1): > 100 µM (inactive)
GI50 (MCF7): > 100 µM (inactive)
GI50 (MDA-MB-231): > 100 µM (inactive)
GI50 (BT-549): > 100 µM (inactive)
GI50 (PC-3): > 100 µM (inactive)
GI50 (SK-OV-3): > 100 µM (inactive)
GI50 (SN12C): > 100 µM (inactive)
GI50 (T47D): > 100 µM (inactive)
GI50 (MDA-MB-435): > 100 µM (inactive)
GI50 (RPMI-8226): > 100 µM (inactive)
GI50 (COLO 205): > 100 µM (inactive)
GI50 (HCC 2998): > 100 µM (inactive)
GI50 (HOP-92): > 100 µM (inactive)
GI50 (OVCAR-5): > 100 µM (inactive)
GI50 (HCT-15): > 100 µM
GI50 (NCI-H460): > 100 µM (inactive)
GI50 (RXF 393): > 100 µM (inactive)
GI50 (UACC-257): > 100 µM (inactive)
GI50 (M14): > 100 µM (inactive)
GI50 (EKVX): > 100 µM (inactive)
GI50 (MDA-N): > 100 µM (inactive)
GI50 (NCI-H522): > 100 µM (inactive)
GI50 (SF-539): > 100 µM (inactive)
GI50 (Hs-578T): > 100 µM (inactive)
GI50 (A498): > 100 µM (inactive)
GI50 (SNB-75): > 100 µM (inactive)
GI50 (SW-620): > 100 µM (inactive)
GI50 (CAKI-1): > 100 µM (inactive)
GI50 (SR): > 100 µM (inactive)
GI50 (K562): > 100 µM (inactive)
GI50 (SF-295): > 100 µM (inactive)
GI50 (HOP-62): > 100 µM (inactive)
GI50 (OVCAR-4): > 100 µM (inactive)
GI50 (NCI/ADR-RES): > 100 µM (inactive)
GI50 (SNB-19): > 100 µM (inactive)
GI50 (LOX IMVI): > 100 µM (inactive)
GI50 (UACC-62): > 100 µM (inactive)
GI50 (TK-10): > 100 µM (inactive)

O=C1c2ccccc2C(=O)N1n1c(Cc2ccccc2)n[nH]c1=O
GI50 (KM12): > 100 µM (inactive)
GI50 (NCI-H23): > 100 µM (inactive)
GI50 (786-0): > 100 µM (inactive)
GI50 (OVCAR-8): > 100 µM (inactive)
GI50 (SK-MEL-2): > 100 µM (inactive)
GI50 (DU-145): > 100 µM (inactive)
GI50 (Malme-3M): > 100 µM (inactive)
GI50 (SK-MEL-5): > 100 µM (inactive)
GI50 (NCI-H226): > 100 µM (inactive)
GI50 (HCT-116): > 100 µM (inactive)
GI50 (A549): > 100 µM (inactive)
GI50 (CCRF-CEM): > 100 µM (inactive)
GI50 (U-251): > 100 µM (inactive)
GI50 (ACHN): > 100 µM (inactive)
GI50 (MOLT-4): > 100 µM (inactive)
GI50 (OVCAR-3): > 100 µM (inactive)
GI50 (UO-31): > 100 µM (inactive)
GI50 (IGROV-1): > 100 µM (inactive)
GI50 (MCF7): > 100 µM (inactive)
GI50 (MDA-MB-231): > 100 µM (inactive)
GI50 (BT-549): > 100 µM (inactive)
GI50 (PC-3): > 100 µM (inactive)
GI50 (SN12C): > 100 µM (inactive)
GI50 (T47D): > 100 µM (inactive)
GI50 (MDA-MB-435): > 100 µM (inactive)
GI50 (COLO 205): > 100 µM (inactive)
GI50 (HCC 2998): > 100 µM (inactive)
GI50 (HOP-92): > 100 µM (inactive)
GI50 (OVCAR-5): > 100 µM (inactive)
GI50 (HCT-15): > 100 µM
GI50 (NCI-H460): > 100 µM (inactive)
GI50 (UACC-257): > 100 µM (inactive)
GI50 (M14): > 100 µM (inactive)
GI50 (EKVX): > 100 µM (inactive)
GI50 (MDA-N): > 100 µM (inactive)
GI50 (SF-539): > 100 µM (inactive)
GI50 (Hs-578T): > 100 µM (inactive)
GI50 (A498): > 100 µM (inactive)
GI50 (SNB-75): > 100 µM (inactive)
GI50 (SW-620): > 100 µM (inactive)
GI50 (CAKI-1): > 100 µM (inactive)
GI50 (SR): > 100 µM (inactive)
GI50 (K562): > 100 µM (inactive)
GI50 (SF-295): > 100 µM (inactive)
GI50 (HOP-62): > 100 µM (inactive)
GI50 (OVCAR-4): > 100 µM (inactive)
GI50 (HT-29): > 100 µM (inactive)
GI50 (NCI/ADR-RES): > 100 µM (inactive)
GI50 (SK-MEL-28): > 100 µM (inactive)
GI50 (SNB-19): > 100 µM (inactive)
GI50 (LOX IMVI): > 100 µM (inactive)
GI50 (UACC-62): > 100 µM (inactive)
GI50 (TK-10): > 100 µM (inactive)

O=c1[nH]c(=S)[nH]c(-c2ccccc2)c1Cc1c(O)ccc2ccccc12 [CAMBINOL]
GI50 (KM12): 30.6 µM (inactive)
GI50 (NCI-H23): 29.6 µM (inactive)
GI50 (786-0): 34.9 µM (inactive)
GI50 (SF-268): 24.7 µM (inactive)
GI50 (OVCAR-8): 38 µM (inactive)
GI50 (SK-MEL-2): 20.4 µM (inactive)
GI50 (DU-145): 41.9 µM (inactive)
GI50 (Malme-3M): 7.98 µM (inactive)
GI50 (SK-MEL-5): 21 µM (inactive)
GI50 (NCI-H226): 29.6 µM (inactive)
GI50 (HCT-116): 24.7 µM (inactive)
GI50 (A549): 32.2 µM (inactive)
GI50 (CCRF-CEM): 19.9 µM (inactive)
GI50 (U-251): 36.1 µM (inactive)
GI50 (ACHN): 34 µM (inactive)
GI50 (MOLT-4): 26.1 µM (inactive)
GI50 (OVCAR-3): 54.3 µM (inactive)
GI50 (UO-31): 29.6 µM (inactive)
GI50 (IGROV-1): 33.7 µM (inactive)
GI50 (MCF7): 33 µM (inactive)
GI50 (MDA-MB-231): 38.6 µM (inactive)
GI50 (BT-549): 27.1 µM (inactive)
GI50 (PC-3): 37.2 µM (inactive)
GI50 (SK-OV-3): 46.1 µM (inactive)
GI50 (SN12C): 32.7 µM (inactive)
GI50 (T47D): 24.4 µM (inactive)
GI50 (MDA-MB-435): 31 µM (inactive)
GI50 (RPMI-8226): 21.6 µM (inactive)
GI50 (COLO 205): 21.5 µM (inactive)
GI50 (HOP-92): 26.1 µM (inactive)
GI50 (OVCAR-5): 33.4 µM (inactive)
GI50 (HCT-15): 34.4 µM
GI50 (NCI-H460): 48.2 µM (inactive)
GI50 (RXF 393): 29.8 µM (inactive)
GI50 (UACC-257): 27.2 µM (inactive)
GI50 (M14): 27.9 µM (inactive)
GI50 (EKVX): 26.1 µM (inactive)
GI50 (MDA-N): 27.9 µM (inactive)
GI50 (NCI-H522): 8.89 µM (inactive)
GI50 (SF-539): 25.6 µM (inactive)
GI50 (Hs-578T): 43.9 µM (inactive)
GI50 (A498): 21.3 µM (inactive)
GI50 (HL-60): 20.6 µM (inactive)
GI50 (SNB-75): 25.6 µM (inactive)
GI50 (SW-620): 42.8 µM (inactive)
GI50 (CAKI-1): 25.5 µM (inactive)
GI50 (SR): 34.8 µM (inactive)
GI50 (K562): 31.3 µM (inactive)
GI50 (SF-295): 52 µM (inactive)
GI50 (HOP-62): 64 µM (inactive)
GI50 (OVCAR-4): 39.7 µM (inactive)
GI50 (HT-29): 39.4 µM (inactive)
GI50 (NCI/ADR-RES): 33.5 µM (inactive)
GI50 (SK-MEL-28): 39.2 µM (inactive)
GI50 (SNB-19): 37.2 µM (inactive)
GI50 (LOX IMVI): 36.1 µM (inactive)
GI50 (UACC-62): 21 µM (inactive)
GI50 (TK-10): 29.1 µM (inactive)
